What was measured:
HT-1080 = experiment: Modulatory profiling: Alamar Blue viability, lethal compound cotreated with death modulator (EC50, AUC); type: cell-based; design: AUC, modulator HT.3MA / AUC, modulator HT.ALLN / AUC HT.ATA / AUC HT.ActD / AUC HT.BHA / AUC HT.BHT / AUC HT.BocD / AUC HT.CHX / AUC HT.Co2+ / AUC HT.DPQ / AUC HT.EGTA / AUC HT.Lmim / AUC HT.NAD+ / AUC HT.Nec-1 / AUC HT.SP600125 / AUC HT.TLCK / AUC HT.U0126: unit not given beside the values; details: for AUC HT.ATA: HT-1080, modulator ATA; for AUC HT.ActD: HT-1080, modulator ActD; for AUC HT.BHA: HT-1080, modulator BHA; for AUC HT.BHT: HT-1080, modulator BHT; for AUC HT.BocD: HT-1080, modulator BocD; for AUC HT.CHX: HT-1080, modulator CHX; for AUC HT.Co2+: HT-1080, modulator Co2+; for AUC HT.CspA: HT-1080, modulator CspA; for AUC HT.DPQ: HT-1080, modulator DPQ; for AUC HT.EGTA: HT-1080, modulator EGTA; for AUC HT.Gd3+: HT-1080, modulator Gd3+; for AUC HT.LNAME: HT-1080, modulator LNAME; for AUC HT.Lmim: HT-1080, modulator Lmim; for AUC HT.NAD+: HT-1080, modulator NAD+; for AUC HT.NMMA: HT-1080, modulator NMMA; for HT.atoc (AUC) / HT.bCarotene (AUC) / HT.deferox (AUC) / HT.digoxin (AUC) / HT.trolox (AUC) / HT.zVAD (AUC): HT-1080; for HT.atoc (AUC): modulator atoc; for HT.bCarotene (AUC): modulator bCarotene; for HT.deferox (AUC): modulator deferox; for HT.digoxin (AUC): modulator digoxin; for HT.trolox (AUC): modulator trolox; for HT.zVAD (AUC): modulator zVAD; on AUC HT.BHA: reference of the scale not given here; on AUC HT.EGTA: reference of the scale not given here
BJeLR = experiment: as above; type: cell-based, human; design: AUC, modulator BJ.Gd3+ / AUC, modulator BJ.LNAME / AUC, modulator BJ.Lmin / AUC, modulator BJ.3MA / AUC, modulator BJ.ALLN / AUC, modulator BJ.Boc D / AUC, modulator BJ.CHX / AUC, modulator BJ.Co2+ / AUC, modulator BJ.Nec-1 / AUC, modulator BJ.Pepstatin / AUC, modulator BJ.TLCK / AUC, modulator BJ.atoc / AUC, modulator BJ.trolox / AUC, modulator BJ.zVAD: unit not given beside the values; details: BJeLR cells, modulatory profile value (AUC); for AUC, modulator BJ.3MA: lethal compound cotreated with modulator 3MA; for AUC, modulator BJ.ALLN: lethal compound cotreated with modulator ALLN; for AUC, modulator BJ.Boc D: lethal compound cotreated with modulator Boc D; for AUC, modulator BJ.CHX: lethal compound cotreated with modulator CHX; for AUC, modulator BJ.Co2+: lethal compound cotreated with modulator Co2+; for AUC, modulator BJ.DPQ: lethal compound cotreated with modulator DPQ; for AUC, modulator BJ.Gd3+: lethal compound cotreated with modulator Gd3+; for AUC, modulator BJ.LNAME: lethal compound cotreated with modulator LNAME; for AUC, modulator BJ.Lmin/NAD+: lethal compound cotreated with modulator Lmin/NAD+; for AUC, modulator BJ.Lmin: lethal compound cotreated with modulator Lmin; for AUC, modulator BJ.NAD+: lethal compound cotreated with modulator NAD+; for AUC, modulator BJ.NMMA: lethal compound cotreated with modulator NMMA; for AUC, modulator BJ.Nec-1: lethal compound cotreated with modulator Nec-1; for AUC, modulator BJ.Pepstatin: lethal compound cotreated with modulator Pepstatin; for AUC, modulator BJ.TLCK: lethal compound cotreated with modulator TLCK; on AUC, modulator BJ.3MA: reference of the scale not given here; on AUC, modulator BJ.ALLN: reference of the scale not given here; on AUC, modulator BJ.Boc D: reference of the scale not given here; on AUC, modulator BJ.CHX: reference of the scale not given here; on AUC, modulator BJ.Co2+: reference of the scale not given here; on AUC, modulator BJ.DPQ: reference of the scale not given here; on AUC, modulator BJ.Gd3+: reference of the scale not given here; on AUC, modulator BJ.LNAME: reference of the scale not given here; on AUC, modulator BJ.NAD+: reference of the scale not given here; on AUC, modulator BJ.NMMA: reference of the scale not given here; on AUC, modulator BJ.Nec-1: reference of the scale not given here; on AUC, modulator BJ.Pepstatin: reference of the scale not given here; on AUC, modulator BJ.TLCK: reference of the scale not given here

| SMILES | AUC HT.ATA (HT-1080) | AUC HT.ActD (HT-1080) | AUC HT.BHA (HT-1080) | AUC HT.BHT (HT-1080) | AUC HT.BocD (HT-1080) | AUC HT.CHX (HT-1080) | AUC HT.Co2+ (HT-1080) | AUC HT.CspA (HT-1080) | AUC HT.DPQ (HT-1080) | AUC HT.EGTA (HT-1080) | AUC HT.Gd3+ (HT-1080) | AUC HT.LNAME (HT-1080) | AUC HT.Lmim (HT-1080) | AUC HT.NAD+ (HT-1080) | AUC HT.NMMA (HT-1080) | HT.atoc (AUC) (HT-1080) | HT.bCarotene (AUC) (HT-1080) | HT.deferox (AUC) (HT-1080) | HT.digoxin (AUC) (HT-1080) | HT.trolox (AUC) (HT-1080) | also measured |
| --- | --- | --- | --- | --- | --- | --- | --- | --- | --- | --- | --- | --- | --- | --- | --- | --- | --- | --- | --- | --- | --- |
| CCC(C(NNC(=O)c1ccc(C(F)(F)F)cc1)c1ccc(C(F)(F)F)cc1)[N+](=O)O (stereo not drawn) [CIL88] | 0.08122 | −0.03102 | 0.007109 | −0.09988 | 0.02037 | 0.04478 | 0.01652 | −0.05842 | −0.01431 | 0.01878 | −0.03651 | 0.02199 | 0.01907 | 0.007478 | −0.000615 | 0.07162 | 0.02318 | 0.0616 | 0.05526 | −0.01577 | HT.zVAD (AUC) (HT-1080): 0.04371; AUC, modulator BJ.3MA (BJeLR): 0.03093; AUC, modulator BJ.ALLN (BJeLR): −0.1424; AUC, modulator BJ.Boc D (BJeLR): −0.01445; AUC, modulator BJ.CHX (BJeLR): 0.2354; AUC, modulator BJ.Co2+ (BJeLR): 0.05379; AUC, modulator BJ.DPQ (BJeLR): −0.03608; AUC, modulator BJ.Gd3+ (BJeLR): −0.03652; AUC, modulator BJ.LNAME (BJeLR): 0.0201; AUC, modulator BJ.Lmin/NAD+ (BJeLR): 0.03399; AUC, modulator BJ.Lmin (BJeLR): −0.01241; AUC, modulator BJ.NAD+ (BJeLR): −0.03559; AUC, modulator BJ.NMMA (BJeLR): −0.01217; AUC, modulator BJ.Nec-1 (BJeLR): −0.03649; AUC, modulator BJ.Pepstatin (BJeLR): −0.06126; AUC, modulator BJ.TLCK (BJeLR): 0.0209 |
| CCOC(=O)[C@@H]1[C@@H](c2ccccc2)C(=O)CCN1NC(=O)c1ccccc1 [CIL89] | 0.05896 | 0.03977 | −0.006147 | −0.1188 | −0.004667 | −0.008693 | 0.008377 | −0.06906 | −0.005287 | 0.04226 | −0.04594 | 0.003061 | 0.02342 | 0.02662 | −0.009041 | 0.0671 | 0.01857 | 0.04587 | 0.01146 | −0.02147 | HT.zVAD (AUC) (HT-1080): 0.03058; AUC, modulator BJ.3MA (BJeLR): −0.01648; AUC, modulator BJ.ALLN (BJeLR): −0.1204; AUC, modulator BJ.Boc D (BJeLR): 0.03243; AUC, modulator BJ.CHX (BJeLR): 0.1968; AUC, modulator BJ.Co2+ (BJeLR): 0.01721; AUC, modulator BJ.DPQ (BJeLR): −0.02598; AUC, modulator BJ.Gd3+ (BJeLR): −0.07038; AUC, modulator BJ.LNAME (BJeLR): 0.03646; AUC, modulator BJ.Lmin/NAD+ (BJeLR): 0.04069; AUC, modulator BJ.Lmin (BJeLR): 0.03551; AUC, modulator BJ.NAD+ (BJeLR): −0.03932; AUC, modulator BJ.NMMA (BJeLR): −0.02344; AUC, modulator BJ.Nec-1 (BJeLR): −0.02957; AUC, modulator BJ.Pepstatin (BJeLR): −0.006292; AUC, modulator BJ.TLCK (BJeLR): −0.06676 |
| C=CCC1(Cl)C(=O)C(Cl)=C(n2ccnc2)C1(OC)OC (stereo not drawn) [CIL76] | 0.04513 | 0.04286 | 0.000578 | −0.08655 | −0.02767 | 0.1505 | 0.1531 | −0.005998 | 0.01554 | −0.02151 | −0.0293 | 0.0222 | 0.007964 | 0.00781 | −0.007942 | 0.003265 | −0.00713 | 0.1376 | 0.01032 | −0.02707 | HT.zVAD (AUC) (HT-1080): 0.032; AUC, modulator BJ.3MA (BJeLR): −0.03638; AUC, modulator BJ.ALLN (BJeLR): −0.0536; AUC, modulator BJ.Boc D (BJeLR): 0.03237; AUC, modulator BJ.CHX (BJeLR): 0.2608; AUC, modulator BJ.Co2+ (BJeLR): 0.1676; AUC, modulator BJ.DPQ (BJeLR): 0.007351; AUC, modulator BJ.Gd3+ (BJeLR): 0.01565; AUC, modulator BJ.LNAME (BJeLR): 0.004345; AUC, modulator BJ.Lmin/NAD+ (BJeLR): −0.02656; AUC, modulator BJ.Lmin (BJeLR): −0.005829; AUC, modulator BJ.NAD+ (BJeLR): 0.004895; AUC, modulator BJ.NMMA (BJeLR): −0.01937; AUC, modulator BJ.Nec-1 (BJeLR): −0.0283; AUC, modulator BJ.Pepstatin (BJeLR): 0.0213; AUC, modulator BJ.TLCK (BJeLR): −0.008689 |
